The results in this text go back to ChEMBL document CHEMBL3603797, “Factors that influence T box riboswitch efficacy and tRNA affinity” (Bioorg Med Chem, 2015).

Test [1] can be described thus: Binding affinity to Bacillus subtilis glyQS T box riboswitch mRNA assessed as inhibition of tRNAgly-induced glyQS transcription readthrough after 3 hrs by fluorescence assay.
Test [2] can be described thus: Inhibition of readthrough probe 5'Cy5-CGCAccuccacuuuucuuucauaaTGCG-Dabcyl3' binding to 5'UUAUGAAAGAAAAGUGGAGGUGC3' RNA (unknown origin) by fluorescence assay.

Structures are written as SMILES. Calls of active or inactive are those of the source. No cut-off for these calls is given here.

`CN(CCCc1ccccc1)Cc1cn(CC(O)COC(=O)NCc2ccccc2)nn1` (configuration not stated): the half-inhibitory concentration (IC50) in test [1] was 8 µM. The inhibition entry in test [2] was “inactive”.
